# Values joined by “and” are separate entries in the source; they are usually repeats but may differ in a detail not shown here. Equal values may be shown once.
# Key:
# A549 cells = assay: A549 proliferation (viability) assay, Cell Titer Fluor, 72 hours; assay type: cell-based; settings: Homo sapiens
# How it was run: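 A549 cells in RPMI 1640 with 10% dialyzed FBS were seeded at 1000 cells/well, grown 24 h, then exposed to compound (0.5% DMSO final) for 72 h at 37 °C, 5% CO2. Viability was read by Cell Titer Fluor fluorescence; EC50 from four-parameter logistic fit.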
# [1] = molecular target: T1, GLS1 (purified recombinant human GAC) (Homo sapiens, UniProt O94925); assay: GLS1 enzymatic activity assay (dual-coupled, Amplex UltraRed/resorufin); assay type: biochemical
# T1 sequence (O94925 55-598 isoform O94925-3 limits assumed): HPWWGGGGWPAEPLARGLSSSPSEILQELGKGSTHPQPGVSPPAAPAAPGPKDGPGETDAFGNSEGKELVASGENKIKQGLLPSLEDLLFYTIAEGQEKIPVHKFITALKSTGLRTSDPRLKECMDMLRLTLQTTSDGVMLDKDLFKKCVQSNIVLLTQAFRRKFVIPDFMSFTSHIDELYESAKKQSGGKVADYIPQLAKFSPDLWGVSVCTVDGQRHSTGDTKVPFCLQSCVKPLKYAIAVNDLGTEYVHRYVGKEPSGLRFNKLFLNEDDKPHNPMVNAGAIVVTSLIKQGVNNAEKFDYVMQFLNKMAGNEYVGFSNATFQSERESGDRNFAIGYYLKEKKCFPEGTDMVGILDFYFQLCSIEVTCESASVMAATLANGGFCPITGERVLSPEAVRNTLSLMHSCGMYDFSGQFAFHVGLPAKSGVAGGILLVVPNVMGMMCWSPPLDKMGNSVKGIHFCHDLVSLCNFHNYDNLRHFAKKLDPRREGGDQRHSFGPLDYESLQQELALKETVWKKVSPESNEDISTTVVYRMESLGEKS
# How it was run: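 In this coupled fluorometric format, phosphate-activated GAC (2 nM, 50 mM phosphate) is pre-exposed to compound for 10 min before 1 mM glutamine addition. Product is tracked as resorufin (530/590 nm) over time or at 20 min, and potency is derived by logistic fitting.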
Structure (SMILES),EC50 (A549 cells) [nM],IC50 [1]
"O=C(Cc1cccc(OC(F)(F)F)c1)Nc1ccc(CCCCn2ccc(NC(=O)[C@H](O)c3ccccc3)nc2=O)nn1 [Example 101, (2R)-2-hydroxy-N-{2-oxo-1-[4-(6-{2-[3-(trifluoro-methoxy)phenyl]acetamido}pyridazin-3-yl)butyl]-1,2-dihydropyrimidin-4-yl}-2-phenylacetamide]",100 to 500,< 100 nM
"CC(C)OC(=O)Nc1ccn(CCCCc2ccc(NC(=O)Cc3cccc(OC(F)(F)F)c3)nn2)c(=O)n1 [Example 102, propan-2-yl N-{2-oxo-1-[4-(6-{2-[3-(trifluoromethoxy)phenyl]acetamido}pyridazin-3-yl)butyl]-1,2-dihydropyrimidin-4-yl}carbamate]",100 to 500,< 100 nM
"O=C(Cc1cccc(OC(F)(F)F)c1)Nc1ccc(CCCCn2ccc(NC(=O)OC3CCCCC3)nc2=O)nn1 [Example 103, cyclohexyl N-{2-oxo-1-[4-(6-{2-[3-(trifluoromethoxy)phenyl]acetamido}pyridazin-3-yl)butyl]-1,2-dihydropyrimidin-4-yl}carbamate]",< 100,< 100 nM
"CC(C)COC(=O)Nc1ccn(CCCCc2ccc(NC(=O)Cc3cccc(OC(F)(F)F)c3)nn2)c(=O)n1 [Example 104, 2-methylpropyl N-{2-oxo-1-[4-(6-{2-[3-(trifluoro-methoxy)phenyl]acetamido}pyridazin-3-yl)butyl]-1,2-dihydropyrimidin-4-yl}carbamate]",< 100,< 100 nM
"O=C(Cc1cccc(OC(F)(F)F)c1)Nc1ccc(CCCCn2ccc(NC(=O)OC3CCOCC3)nc2=O)nn1 [Example 105, oxan-4-yl N-{2-oxo-1-[4-(6-{2-[3-(trifluoromethoxy)phenyl]acetamido}pyridazin-3-yl)butyl]-1,2-dihydropyrimidin-4-yl}carbamate]",100 to 500,< 100 nM
"CC(C)NC(=O)Nc1ccn(CCCCc2ccc(NC(=O)Cc3cccc(OC(F)(F)F)c3)nn2)c(=O)n1 [Example 106, N-{6-[4-(2-oxo-4-{[(propan-2-yl)carbamoyl]amino}-1,2-dihydropyrimidin-1-yl)butyl]pyridazin-3-yl}-2-[3-(trifluoromethoxy)phenyl]acetamide]",500 to 5000,100 to 500 nM
"O=C(Cc1cccc(OC(F)(F)F)c1)Nc1ccc(CCCCn2ccc(NC(=O)NC3CCCCC3)nc2=O)nn1 [Example 107, N-[6-(4-{4-[(cyclohexylcarbamoyl)amino]-2-oxo-1,2-dihydropyrimidin-1-yl}butyl)pyridazin-3-yl]-2-[3-(trifluoromethoxy)phenyl]acetamide]",500 to 5000,< 100 nM
"O=C(Cc1cccc(OC(F)(F)F)c1)Nc1ccc(CCCCn2ccc(NC(=O)CC3CCCCC3)nc2=O)nn1 [Example 108, N-(6-{4-[4-(2-cyclohexylacetamido)-2-oxo-1,2-dihydropyrimidin-1-yl]butyl}pyridazin-3-yl)-2-[3-(trifluoromethoxy)phenyl]acetamide]",< 100,< 100 nM
"O=C(Cc1cccc(OC(F)(F)F)c1)Nc1ccc(CCCCn2ccc(NC(=O)CCN3CCCC3)nc2=O)nn1 [Example 109, N-{2-oxo-1-[4-(6-{2-[3-(trifluoromethoxy)phenyl]acetamido}pyridazin-3-yl)butyl]-1,2-dihydropyrimidin-4-yl}-3-(pyrrolidin-1-yl)propanamide]",500 to 5000,100 to 500 nM
"CS(=O)(=O)CCC(=O)Nc1ccn(CCCCc2ccc(NC(=O)Cc3cccc(OC(F)(F)F)c3)nn2)c(=O)n1 [Example 110, 3-methanesulfonyl-N-{2-oxo-1-[4-(6-{2-[3-(trifluoro-methoxy)phenyl]acetamido}pyridazin-3-yl)butyl]-1,2-dihydropyrimidin-4-yl}propanamide]",100 to 500,< 100 nM
"CC(C)CC(=O)Nc1ccn(CCCCc2ccc(NC(=O)Cc3cccc(OC(F)(F)F)c3)nn2)c(=O)n1 [Example 111, 3-methyl-N-{2-oxo-1-[4-(6-{2-[3-(trifluoromethoxy)phenyl]acetamido}pyridazin-3-yl)butyl]-1,2-dihydropyrimidin-4-yl}butanamide]",< 100,< 100 nM
"COCCOC(=O)Nc1ccn(CCCCc2ccc(NC(=O)Cc3cccc(OC(F)(F)F)c3)nn2)c(=O)n1 [Example 112, 2-methoxyethyl N-{2-oxo-1-[4-(6-{2-[3-(trifluoro-methoxy)phenyl]acetamido}pyridazin-3-yl)butyl]-1,2-dihydropyrimidin-4-yl}carbamate]",100 to 500,< 100 nM
"O=C(Cc1cccc(OC(F)(F)F)c1)Nc1ccc(CCCCn2ccc(NC(=O)CO)nc2=O)nn1 [Example 113, 2-hydroxy-N-{2-oxo-1-[4-(6-{2-[3-(trifluoromethoxy)phenyl]acetamido}pyridazin-3-yl)butyl]-1,2-dihydropyrimidin-4-yl}acetamide]",500 to 5000,< 100 nM
"Cn1cc(CC(=O)Nc2ccn(CCCCc3ccc(NC(=O)Cc4cccc(OC(F)(F)F)c4)nn3)c(=O)n2)cn1 [Example 114, N-[6-(4-{4-[2-(1-methyl-1H-pyrazol-4-yl)acetamido]-2-oxo-1,2-dihydropyrimidin-1-yl}butyl)pyridazin-3-yl]-2-[3-(trifluoromethoxy)phenyl]acetamide]",< 100,< 100 nM
"O=C(Cc1cccc(OC(F)(F)F)c1)Nc1ccc(CCCCn2ccc(NC(=O)Cc3cccnc3)nc2=O)nn1 [Example 116, N-[6-(4-{2-oxo-4-[2-(pyridin-3-yl)acetamido]-1,2-dihydropyrimidin-1-yl}butyl)pyridazin-3-yl]-2-[3-(trifluoromethoxy)phenyl]acetamide]",< 100,< 100 nM
"O=C(Cc1cccc(OC(F)(F)F)c1)Nc1ccc(CCCCn2ccc(NC(=O)CCO)nc2=O)nn1 [Example 117, 3-hydroxy-N-{2-oxo-1-[4-(6-{2-[3-(trifluoromethoxy)phenyl]acetamido}pyridazin-3-yl)butyl]-1,2-dihydropyrimidin-4-yl}propanamide]",500 to 5000,< 100 nM
"O=C(Cc1cccc(OC(F)(F)F)c1)Nc1ccc(CCCCn2ccc(NC(=O)Cc3ccccn3)nc2=O)nn1 [Example 118, N-[6-(4-{2-oxo-4-[2-(pyridin-2-yl)acetamido]-1,2-dihydropyrimidin-1-yl}butyl)pyridazin-3-yl]-2-[3-(trifluoromethoxy)phenyl]acetamide]",< 100,< 100 nM
"O=C(Nc1ccn(CCCCc2nnc(C(=O)NCCO)s2)c(=O)n1)OCc1ccccc1 [Example 119, benzyl N-[1-(4-{5-[(2-hydroxyethyl)carbamoyl]-1,3,4-thiadiazol-2-yl}butyl)-2-oxo-1,2-dihydropyrimidin-4-yl]carbamate]",> 5000,500 to 5000 nM
"O=C(Nc1ccn(CCCCc2nnc(C(=O)NCc3ccccn3)s2)c(=O)n1)OCc1ccccc1 [Example 120, benzyl N-[2-oxo-1-(4-{5-[(pyridin-2-ylmethyl)carbamoyl]-1,3,4-thiadiazol-2-yl}butyl)-1,2-dihydropyrimidin-4-yl]carbamate]",500 to 5000,500 to 5000 nM and 100 to 500 nM
"COCCNC(=O)c1nnc(CCCCn2ccc(NC(=O)OCc3ccccc3)nc2=O)s1 [Example 121, benzyl N-[1-(4-{5-[(2-methoxyethyl)carbamoyl]-1,3,4-thiadiazol-2-yl}butyl)-2-oxo-1,2-dihydropyrimidin-4-yl]carbamate]",> 5000,500 to 5000 nM
"O=C(Nc1ccn(CCCCc2nnc(C(=O)NCc3ccccc3)s2)c(=O)n1)OCc1ccccc1 [Example 122, benzyl N-(1-{4-[5-(benzylcarbamoyl)-1,3,4-thiadiazol-2-yl]butyl}-2-oxo-1,2-dihydropyrimidin-4-yl)carbamate]",100 to 500,100 to 500 nM
"Cc1ccc(CNC(=O)c2cn(C[C@@H](F)CCn3ccc(NC(=O)Cc4ccccc4)c(F)c3=O)nn2)cn1 [Example 124, (S)-1-(2-fluoro-4-(3-fluoro-2-oxo-4-(2-phenylacetamido)pyridin-1(2H)-yl)butyl)-N-((6-methylpyridin-3-yl)methyl)-1H-1,2,3-triazole-4-carboxamide]",500 to 5000,100 to 500 nM
"O=C(Cc1ccccc1)Nc1ccn(CC[C@H](F)Cn2cc(C(=O)NCc3cc(C(F)(F)F)ccn3)nn2)c(=O)c1F [Example 125, (S)-1-(2-fluoro-4-(3-fluoro-2-oxo-4-(2-phenylacetamido)pyridin-1(2H)-yl)butyl)-N-((4-(trifluoromethyl)pyridin-2-yl)methyl)-1H-1,2,3-triazole-4-carboxamide]",< 100,< 100 nM
"O=C(Cc1ccccc1)Nc1ccn(CC[C@H](F)Cn2cc(C(=O)NCc3cccc(C(F)(F)F)n3)nn2)c(=O)c1F [Example 126, (S)-1-(2-fluoro-4-(3-fluoro-2-oxo-4-(2-phenylacetamido)pyridin-1(2H)-yl)butyl)-N-((6-(trifluoromethyl)pyridin-2-yl)methyl)-1H-1,2,3-triazole-4-carboxamide]",100 to 500,< 100 nM

# From patent publication US20160002204A1 (Board of Regents, The University of Texas System, priority 2014, published 2016)
